In ChEMBL document CHEMBL2440076, “New triarylpyrazoles as broad-spectrum anticancer agents: design, synthesis, and biological evaluation” (Eur J Med Chem, 2013):

Legend:
LOX IMVI [1] = test: Growth inhibition of human LOXIMVI cells assessed as cell growth at 10 uM after 48 hrs by sulforhodamine B assay; assay type: functional; details: read-out: Activity
OVCAR-4 [2] = test: Growth inhibition of human OVCAR4 cells assessed as cell growth at 10 uM after 48 hrs by sulforhodamine B assay; assay type: functional; details: OVCAR-4, 48 h, read-out: Activity
Malme-3M [3] = test: Growth inhibition of human MALME-3M cells after 48 hrs by sulforhodamine B assay; assay type: functional
IGROV-1 = test: Growth inhibition of human IGROV1 cells assessed as cell growth at 10 uM after 48 hrs by sulforhodamine B assay; assay type: functional; details: IGROV-1, 48 h, read-out: Activity
MDA-MB-435 = test: Growth inhibition of human MDA-MB-435 cells assessed as cell growth at 10 uM after 48 hrs by sulforhodamine B assay; assay type: functional; details: MDA-MB-435, 48 h, read-out: Activity
M14 = test: Growth inhibition of human M14 cells after 48 hrs by sulforhodamine B assay; assay type: functional; details: M14, 48 h
SF-268 = test: Growth inhibition of human SF268 cells after 48 hrs by sulforhodamine B assay; assay type: functional; details: SF-268, 48 h
SR = test: Growth inhibition of human SR cells after 48 hrs by sulforhodamine B assay; assay type: functional
A498 = test: Growth inhibition of human A498 cells after 48 hrs by sulforhodamine B assay; assay type: functional, cell-based; details: A498, 48 h
[4] = Growth inhibition of human NCI-ADR-RES cells assessed as cell growth at 10 uM after 48 hrs by sulforhodamine B assay; assay type: functional; details: read-out: Activity
A549 = test: Growth inhibition of human A549/ATCC cells assessed as cell growth at 10 uM after 48 hrs by sulforhodamine B assay; assay type: functional; details: A549, 48 h, read-out: Activity
OVCAR-4 [5] = test: Growth inhibition of human OVCAR4 cells after 48 hrs by sulforhodamine B assay; assay type: functional; details: OVCAR-4, 48 h
HCT-15 [6] = test: Growth inhibition of human HCT15 cells assessed as cell growth at 10 uM after 48 hrs by sulforhodamine B assay; assay type: functional; details: HCT-15, 48 h, read-out: Activity
NCI-H226 [7] = test: Growth inhibition of human NCI-H226 cells assessed as cell growth at 10 uM after 48 hrs by sulforhodamine B assay; assay type: functional; details: NCI-H226, 48 h, read-out: Activity
HT-29 = test: Growth inhibition of human HT-29 cells assessed as cell growth at 10 uM after 48 hrs by sulforhodamine B assay; assay type: functional; details: HT-29, 48 h, read-out: Activity
KM12 = test: Growth inhibition of human KM12 cells assessed as cell growth at 10 uM after 48 hrs by sulforhodamine B assay; assay type: functional; details: KM12, 48 h, read-out: Activity
NCI-H322M = test: Growth inhibition of human NCI-H322M cells assessed as cell growth at 10 uM after 48 hrs by sulforhodamine B assay; assay type: functional; details: read-out: Activity
HOP-92 [8] = test: Growth inhibition of human HOP92 cells assessed as cell growth at 10 uM after 48 hrs by sulforhodamine B assay; assay type: functional; details: HOP-92, 48 h, read-out: Activity
COLO 205 = test: Growth inhibition of human COLO205 cells after 48 hrs by sulforhodamine B assay; assay type: functional; details: COLO 205, 48 h
CCRF-CEM = test: Growth inhibition of human CCRF-CEM cells assessed as cell growth at 10 uM after 48 hrs by sulforhodamine B assay; assay type: functional; details: read-out: Activity
HOP-62 = test: Growth inhibition of human HOP62 cells after 48 hrs by sulforhodamine B assay; assay type: functional; details: HOP-62, 48 h
OVCAR-8 = test: Growth inhibition of human OVCAR8 cells after 48 hrs by sulforhodamine B assay; assay type: functional; details: OVCAR-8, 48 h
HCT-15 [9] = test: Growth inhibition of human HCT15 cells after 48 hrs by sulforhodamine B assay; assay type: functional; details: HCT-15, 48 h
SF-539 = test: Growth inhibition of human SF539 cells assessed as cell growth at 10 uM after 48 hrs by sulforhodamine B assay; assay type: functional; details: SF-539, 48 h, read-out: Activity
ACHN = test: Growth inhibition of human ACHN cells after 48 hrs by sulforhodamine B assay; assay type: functional
Malme-3M [10] = test: Growth inhibition of human MALME-3M cells assessed as cell growth at 10 uM after 48 hrs by sulforhodamine B assay; assay type: functional; details: read-out: Activity
SN12C = test: Growth inhibition of human SN12C cells after 48 hrs by sulforhodamine B assay; assay type: functional
MOLT-4 = test: Growth inhibition of human MOLT4 cells assessed as cell growth at 10 uM after 48 hrs by sulforhodamine B assay; assay type: functional; details: MOLT-4, 48 h, read-out: Activity
MCF7 = test: Growth inhibition of human MCF7 cells assessed as cell growth at 10 uM after 48 hrs by sulforhodamine B assay; assay type: functional; details: MCF7, 48 h, read-out: Activity
NCI-H226 [11] = test: Growth inhibition of human NCI-H226 cells after 48 hrs by sulforhodamine B assay; assay type: functional; details: NCI-H226, 48 h
UACC-62 = test: Growth inhibition of human UACC62 cells after 48 hrs by sulforhodamine B assay; assay type: functional; details: UACC-62, 48 h
HCT-116 = test: Growth inhibition of human HCT116 cells after 48 hrs by sulforhodamine B assay; assay type: functional; details: HCT-116, 48 h
SNB-19 = test: Growth inhibition of human SNB19 cells after 48 hrs by sulforhodamine B assay; assay type: functional; details: SNB-19, 48 h
HOP-92 [12] = test: Growth inhibition of human HOP92 cells after 48 hrs by sulforhodamine B assay; assay type: functional, cell-based; details: HOP-92, 48 h
LOX IMVI [13] = test: Growth inhibition of human LOXIMVI cells after 48 hrs by sulforhodamine B assay; assay type: functional
[14] = read-out: LC50 (the source's name)

For `COc1cc(-c2nn(-c3cccc(NC(=O)Nc4ccc(Cl)c(C(F)(F)F)c4)c3)cc2-c2ccncc2)ccc1Cl`, the growth at 10 µM (LOX IMVI [1]) was 1.06%, the growth at 10 µM (OVCAR-4 [2]) was 20.8% and the GI50 (Malme-3M [3]) was 0.838 µM. The LC50 (concentration killing 50% of starting cells) (Malme-3M [3]) was greater than 32.5 µM, the TGI (Malme-3M [3]) was 2.35 µM and the growth at 10 µM (IGROV-1) was 25.6%. For the same compound, the growth at 10 µM (MDA-MB-435) was -52.3%, the GI50 (M14) was 1.08 µM and the LC50 (concentration killing 50% of cells) (M14) was 19.1 µM. It also gave a TGI (M14) of 3.71 µM, a GI50 (SF-268) of 1.46 µM and a TGI (SF-268) of 9.14 µM. The CC50 (SF-268; [14]) was greater than 32.5 µM, the GI50 (SR) was 0.884 µM and the TGI (SR) was 2.48 µM. The CC50 (SR; [14]) was greater than 32.5 µM, the GI50 (A498) was 0.837 µM and the IC50 (A498) was 0.84 µM. The TGI (A498) was 6.97 µM, the CC50 (A498; [14]) was greater than 32.5 µM and the growth at 10 µM [4] was -0.86%. The growth at 10 µM (A549) was -10.4%, the GI50 (OVCAR-4 [5]) was 1.29 µM and the LC50 (concentration killing 50% of cells) (OVCAR-4 [5]) was greater than 32.5 µM. For the same compound, the TGI (OVCAR-4 [5]) was 25.6 µM, the growth at 10 µM (HCT-15 [6]) was 9.91% and the growth at 10 µM (NCI-H226 [7]) was 12.1%. For the same compound, the growth at 10 µM (HT-29) was -0.5%, the growth at 10 µM (KM12) was 2.88% and the growth at 10 µM (NCI-H322M) was 32.3%. It also gave a growth at 10 µM (HOP-92 [8]) of -37.5%, a GI50 (COLO 205) of 0.711 µM and an LC50 (concentration killing 50% of cells) (COLO 205) of 3.48 µM. It also gave a TGI (COLO 205) of 1.54 µM, a growth at 10 µM (CCRF-CEM) of -8.04% and a GI50 (HOP-62) of 1.31 µM. For the same compound, the TGI (HOP-62) was 6.49 µM, the CC50 (HOP-62; [14]) was 31 µM and the GI50 (OVCAR-8) was 1.05 µM. The TGI (OVCAR-8) was 5.87 µM, the CC50 (OVCAR-8; [14]) was greater than 32.5 µM and the GI50 (HCT-15 [9]) was 1.23 µM. For the same compound, the LC50 (HCT-15 [9]) was greater than 32.5 µM, the TGI (HCT-15 [9]) was 7.05 µM and the growth at 10 µM (SF-539) was 6.56%. The GI50 (ACHN) was 1.1 µM, the TGI (ACHN) was 15.6 µM and the CC50 (ACHN; [14]) was greater than 32.5 µM. It also gave a growth at 10 µM (Malme-3M [10]) of -14.9%, a GI50 (SN12C) of 1.14 µM and a TGI (SN12C) of 9.23 µM. For the same compound, the CC50 (SN12C; [14]) was greater than 32.5 µM, the growth at 10 µM (MOLT-4) was -2.38% and the growth at 10 µM (MCF7) was 0.14%. The GI50 (NCI-H226 [11]) was 1.82 µM, the TGI (NCI-H226 [11]) was greater than 32.5 µM and the CC50 (NCI-H226 [11]; [14]) was greater than 32.5 µM. It also gave a GI50 (UACC-62) of 0.737 µM, an LC50 (50% lethal concentration) (UACC-62) of 11.6 µM and a TGI (UACC-62) of 2.09 µM. For the same compound, the GI50 (HCT-116) was 1.17 µM, the TGI (HCT-116) was 4.56 µM and the CC50 (HCT-116; [14]) was 21.5 µM. For the same compound, the GI50 (SNB-19) was 1.24 µM, the LC50 (concentration killing 50% of cells) (SNB-19) was greater than 32.5 µM and the TGI (SNB-19) was 9.24 µM. For the same compound, the GI50 (HOP-92 [12]) was 0.499 µM, the IC50 (HOP-92 [12]) was 0.5 µM and the LC50 (HOP-92 [12]) was greater than 32.5 µM. The TGI (HOP-92 [12]) was 1.48 µM, the GI50 (LOX IMVI [13]) was 1.17 µM and the LC50 (LOX IMVI [13]) was 17.9 µM. It also gave a TGI (LOX IMVI [13]) of 4.61 µM.
